Here are results for 1 substance from patent US20110177054A1, “USE OF ENDO-LYSOSOMAL SYSTEM AND SECRETED VESICLES (EXOSOME-LIKE) IN TREATMENTS AND DIAGNOSTICS BASED ON SMALL RNA AND EXPERIMENTAL STUDY OF SMALL RNA” (priority 2008, published 2011).

The target of one series is T1, BIG2 (Homo sapiens, UniProt Q9Y6D5).
T1 construct: endogenous in cells; host or cells: Mono-Mac6 monocytic cells
The experiment in a line: Exosome release after RNAi of BIG2 (protein in purified exosome pellets). In kind it is cell-based. Here is the method: FIG. 5: Differential centrifugation enriches exosomes greatly. (A) Western blot of 50 μg of cell or exosome lysate with markers of exosomes (CD63, Tfr R, or Ub). (B) Cell counts and total protein quantitation of exosome pellets 36 h after transfection of cells with siRNA targeting BIG2 or control. (C) Electron microscopy of resuspended exosome pellets after uranyl acetate staining. (D) Dynamic light scattering analysis of purified exosome pellets resuspended in PBS (Phosphate buffered saline). Top graph represents five sets of measurements as size in nm (x-axis) as a function of relative number (y-axis) of particles detected. Bottom graph represents size in nm (x-axis) as a function of volume (y-axis). Measurements by volume exponentially amplify the representation of larger particles present.
FIG. 9: Purified exosomes are enriched in GW182, but not Dcp1a or Ge-1. (a) Equal amounts of proteins from exosomes and cells were analyzed by western blotting for exosome-enriched protein, CD63. Electron microscopy of resuspended exosome pellets. […] Error bars, SEM of five measurements. (c) RNAi of BIG2 reduces the recovery of proteins in exosome preparations (paired t-test, n=4, p=0.0194, a=0.05). […] (d) Equal amounts of proteins from exosomes and whole cells were analyzed by western blotting. […]

The test system of series [1] is miR-K12-4 target reporter. The experiment in a line: Intercellular transfer of miR-K12-4 by exosomes (psiCHECK dual luciferase reporter in target cells). The note with it: BIG2 siRNA delivered to exosome producing cells simultaneously with miR-K12-4 or miR-206 plasmids. In kind it is cell-based. Here is the method:
FIG. 7: exosomes transfer active siRNA and miRNA to target cells in a BIG2-dependent manner. (A) Exosomes purified from cells transfected with GFP siRNA or control siRNA were incubated with cells transfected with GFP. GFP expression was examined 8 hours or 24 hours later by flow cytometry. GFP expression was calculated as 1-(GFP expression GFP siRNA exosomes/GFP expression control siRNA exosomes)×100. (n=3, p<0.05, paired t-test). (B) Exosomes purified from cells transfected with miR-206 or miR-K12-4 were incubated with cells transfected with a target site for miR-K12-4 inserted into the psiCHECK dual luciferase plasmid. Activity of luciferases was measured 8 hours later. Inhibition of Firefly luciferase expression was calculated as: 1-(Firefly luciferase/Renilla luciferase miR-K12-4 exosomes)/(Firefly luciferase/Renilla luciferase miR-206 exosomes)×100. (n=4, p<0.05, paired t-test). Error bars represent standard error of the mean.
FIG. 8: Exosomes mediate transfer of miRNA activity in a BIG2-dependent manner. […] Activity of luciferases was measured after 8 hours (n=4, p=0.0287, t-test, a=0.05). […] GFP expression was measured by FACS analysis after 8 or 24 h (right). […]
On the technique in general: In a reporter assay the amount or activity of a reporter protein is the signal.

T1 sequence (Q9Y6D5 whole entry): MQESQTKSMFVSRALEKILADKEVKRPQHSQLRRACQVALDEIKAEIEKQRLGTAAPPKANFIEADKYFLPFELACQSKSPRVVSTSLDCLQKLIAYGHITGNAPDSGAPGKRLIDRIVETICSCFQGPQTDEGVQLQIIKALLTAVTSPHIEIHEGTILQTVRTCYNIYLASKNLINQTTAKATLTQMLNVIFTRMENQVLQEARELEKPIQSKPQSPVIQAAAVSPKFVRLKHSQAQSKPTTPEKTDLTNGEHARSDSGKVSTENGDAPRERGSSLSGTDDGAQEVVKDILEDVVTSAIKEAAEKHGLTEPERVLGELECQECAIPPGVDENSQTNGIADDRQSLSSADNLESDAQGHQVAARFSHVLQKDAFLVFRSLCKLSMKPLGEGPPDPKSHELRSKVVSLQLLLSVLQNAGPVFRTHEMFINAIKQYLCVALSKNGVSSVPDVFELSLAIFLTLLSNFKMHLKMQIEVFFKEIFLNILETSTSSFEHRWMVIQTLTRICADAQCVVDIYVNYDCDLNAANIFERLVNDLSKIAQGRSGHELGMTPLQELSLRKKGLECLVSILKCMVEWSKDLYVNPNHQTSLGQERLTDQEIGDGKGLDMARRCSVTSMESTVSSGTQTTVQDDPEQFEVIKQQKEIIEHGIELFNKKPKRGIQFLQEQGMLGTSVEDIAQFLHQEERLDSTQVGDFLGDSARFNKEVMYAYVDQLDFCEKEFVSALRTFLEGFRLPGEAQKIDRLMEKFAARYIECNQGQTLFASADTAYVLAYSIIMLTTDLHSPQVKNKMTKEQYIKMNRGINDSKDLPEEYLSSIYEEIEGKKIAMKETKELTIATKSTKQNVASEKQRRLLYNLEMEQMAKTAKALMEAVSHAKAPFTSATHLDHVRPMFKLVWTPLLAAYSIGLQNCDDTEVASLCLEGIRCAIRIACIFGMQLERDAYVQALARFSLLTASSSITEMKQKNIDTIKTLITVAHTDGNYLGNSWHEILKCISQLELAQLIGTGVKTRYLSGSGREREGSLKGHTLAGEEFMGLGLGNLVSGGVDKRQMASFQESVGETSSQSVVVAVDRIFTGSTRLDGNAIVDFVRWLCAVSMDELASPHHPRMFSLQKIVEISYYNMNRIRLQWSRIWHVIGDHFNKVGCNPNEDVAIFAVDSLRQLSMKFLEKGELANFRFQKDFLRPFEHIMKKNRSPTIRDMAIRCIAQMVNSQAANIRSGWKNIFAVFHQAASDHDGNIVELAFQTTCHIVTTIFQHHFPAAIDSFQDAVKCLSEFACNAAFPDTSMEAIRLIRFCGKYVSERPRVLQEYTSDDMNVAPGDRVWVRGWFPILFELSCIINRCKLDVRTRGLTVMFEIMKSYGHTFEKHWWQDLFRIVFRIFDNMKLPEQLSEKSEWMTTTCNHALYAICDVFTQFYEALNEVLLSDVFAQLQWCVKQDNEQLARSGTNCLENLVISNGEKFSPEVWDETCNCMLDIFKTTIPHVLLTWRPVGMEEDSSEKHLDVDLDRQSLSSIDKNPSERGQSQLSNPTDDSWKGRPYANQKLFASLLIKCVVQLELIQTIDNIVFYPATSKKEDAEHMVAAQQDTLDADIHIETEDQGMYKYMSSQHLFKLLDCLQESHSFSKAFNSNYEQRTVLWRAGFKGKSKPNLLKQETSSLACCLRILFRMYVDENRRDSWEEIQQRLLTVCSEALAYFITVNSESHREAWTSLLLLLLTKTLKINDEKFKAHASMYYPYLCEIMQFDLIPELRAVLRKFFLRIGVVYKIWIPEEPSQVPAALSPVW

On to “BIG2 siRNA: siRNA targeting BIG2: CGAUGAAAUUAAAGCAGAA (SEQ ID NO. 11) (listed as RNA, chemistry not given here)”, for which, in the series with BIG2 (RNAi of BIG2 vs control, paired t-test n=4 p=0.0194), the “recovery of proteins in exosome preparations” value is listed as “reduces”. For the same substance, the “reduction of exosome release / vesicle yield” value with BIG2 (siRNA targeting BIG2 vs control siRNA, monocytic cells, transfection efficiency ~50%) was around 50%. Further, the “knockdown of miR-K12-4 reporter expression in target cells by exosomes” value in series [1] was “inhibited knockdown”.
